Assay results taken from PubChem BioAssay AID1963826 (Molecular Pharmacology Branch, DTP, NCI, 2024).

System: 926638-142-R-J1-PDC complex spheroid viability
Test: Anticancer human tumor 926638-142-R-J1-PDC patient-derived endometrial carcinoma cell line growth inhibition [POLQ]
Details: for IC50: curve of first compound; for viability, T/C: stronger effect = lower value
Summary of the method: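 PDC + HUVEC + MSC complex spheroids; POLQ inhibitors ± partner drugs; top conc. at/near clinical Cmax, else 10 microM (SN-38 1 microM), half-log dilutions; 37 degrees C, 5% CO2.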

[1] = second compound 0.0316 µM, first compound 0.0316 µM
[2] = second compound 0.0316 µM, first compound 0.1 µM
[3] = second compound 0.0316 µM, first compound 0.316 µM
[4] = second compound 0.0316 µM, first compound 1 µM
[5] = second compound 0.0316 µM, first compound 3.16 µM
[6] = second compound 0.0316 µM, first compound 10 µM
[7] = second compound 0.1 µM, first compound 0.0316 µM
[8] = second compound 0.1 µM, first compound 0.1 µM
[9] = second compound 0.1 µM, first compound 0.316 µM
[10] = second compound 0.1 µM, first compound 1 µM
[11] = second compound 0.1 µM, first compound 3.16 µM
[12] = second compound 0.1 µM, first compound 10 µM
[13] = second compound 0.316 µM, first compound 0.0316 µM
[14] = second compound 0.316 µM, first compound 0.1 µM
[15] = second compound 0.316 µM, first compound 0.316 µM
[16] = second compound 0.316 µM, first compound 1 µM
[17] = second compound 0.316 µM, first compound 3.16 µM
[18] = second compound 0.316 µM, first compound 10 µM
[19] = second compound 1 µM, first compound 0.0316 µM
[20] = second compound 1 µM, first compound 0.1 µM
[21] = second compound 1 µM, first compound 0.316 µM
[22] = second compound 1 µM, first compound 1 µM
[23] = second compound 1 µM, first compound 3.16 µM
[24] = second compound 1 µM, first compound 10 µM
[25] = second compound 3.16 µM, first compound 0.0316 µM
[26] = second compound 3.16 µM, first compound 0.1 µM
[27] = second compound 3.16 µM, first compound 0.316 µM
[28] = second compound 3.16 µM, first compound 1 µM
[29] = second compound 3.16 µM, first compound 3.16 µM
[30] = second compound 3.16 µM, first compound 10 µM
[31] = second compound 10 µM, first compound 0.0316 µM
[32] = second compound 10 µM, first compound 0.1 µM
[33] = second compound 10 µM, first compound 0.316 µM
[34] = second compound 10 µM, first compound 1 µM
[35] = second compound 10 µM, first compound 3.16 µM
[36] = second compound 10 µM, first compound 10 µM
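Further: spheroids exposed to drugs for one week before readout.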
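Wherever viability, T/C is given: percent viability relative to DMSO vehicle control wells set as 100%.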

In the case of `O=C(Nc1ccc(O)c(NS(=O)(=O)c2ccc(F)cc2)c1)c1ccc(-c2ccccc2)cc1` + Cc1cccc(N(C)C(=O)C2C(O)CCN2c2nc(C)cc(C(F)(F)F)c2C#N)c1, the IC50 (second compound 0.0316 µM) is reported as greater than 10 µM, the IC50 (second compound 0.1 µM) is reported as greater than 10 µM and the IC50 (second compound 0.316 µM) is reported as greater than 10 µM. The IC50 (second compound 1 µM) was greater than 10 µM, the IC50 (second compound 3.16 µM) was greater than 10 µM and the IC50 (second compound 10 µM) was greater than 10 µM. It also gave a viability, T/C [1] of 93.9%, a viability, T/C [2] of 93.2% and a viability, T/C [3] of 91.6%. For the same molecule, the viability, T/C [4] was 91%, the viability, T/C [5] was 90.5% and the viability, T/C [6] was 62.5%. It also gave a viability, T/C [7] of 104%, a viability, T/C [8] of 78.6% and a viability, T/C [9] of 81.2%. For the same molecule, the viability, T/C [10] was 94%, the viability, T/C [11] was 90.1% and the viability, T/C [12] was 62.5%. The viability, T/C [13] was 94.3%, the viability, T/C [14] was 105% and the viability, T/C [15] was 86.6%. For the same molecule, the viability, T/C [16] was 87.8%, the viability, T/C [17] was 94.5% and the viability, T/C [18] was 67.2%. It also gave a viability, T/C [19] of 90.3%, a viability, T/C [20] of 94.8% and a viability, T/C [21] of 88.1%. It also gave a viability, T/C [22] of 96.9%, a viability, T/C [23] of 85.6% and a viability, T/C [24] of 73.1%. The viability, T/C [25] was 79.6%, the viability, T/C [26] was 91.5% and the viability, T/C [27] was 82.1%. It also gave a viability, T/C [28] of 97.6%, a viability, T/C [29] of 95.7% and a viability, T/C [30] of 68.5%. For the same molecule, the viability, T/C [31] was 79.1%, the viability, T/C [32] was 75.8% and the viability, T/C [33] was 74.6%. For the same molecule, the viability, T/C [34] was 78.7%, the viability, T/C [35] was 80.7% and the viability, T/C [36] was 55.7%.
In the case of `CCc1cc2c(N3CCc4c(cc(Cn5ccnc5)cc4-c4cn(C)nc4C(F)(F)F)C3=O)ccnc2c(OC)n1` + Nc1ccc(C#CCN(C(=O)Cc2ncc(C(F)(F)F)cc2C(F)(F)F)c2ccc(F)cc2)nn1, the IC50 (second compound 0.0316 µM) is reported as 1.06 µM, the IC50 (second compound 0.1 µM) is reported as 0.879 µM and the IC50 (second compound 0.316 µM) is reported as 0.713 µM. The IC50 (second compound 1 µM) was 0.931 µM, the IC50 (second compound 3.16 µM) was 0.578 µM and the IC50 (second compound 10 µM) was 0.757 µM. It also gave a viability, T/C [1] of 88.5%, a viability, T/C [2] of 73.4% and a viability, T/C [3] of 59.6%. It also gave a viability, T/C [4] of 54.3%, a viability, T/C [5] of 38.7% and a viability, T/C [6] of 26.6%. It also gave a viability, T/C [7] of 81.5%, a viability, T/C [8] of 77.6% and a viability, T/C [9] of 59.8%. The viability, T/C [10] was 49.8%, the viability, T/C [11] was 36.8% and the viability, T/C [12] was 29.6%. The viability, T/C [13] was 88.8%, the viability, T/C [14] was 73.4% and the viability, T/C [15] was 53.4%. The viability, T/C [16] was 48.1%, the viability, T/C [17] was 41.2% and the viability, T/C [18] was 29.4%. It also gave a viability, T/C [19] of 83.7%, a viability, T/C [20] of 67.3% and a viability, T/C [21] of 62.4%. The viability, T/C [22] was 45.3%, the viability, T/C [23] was 44.8% and the viability, T/C [24] was 33.3%. It also gave a viability, T/C [25] of 68.3%, a viability, T/C [26] of 70.5% and a viability, T/C [27] of 58%. It also gave a viability, T/C [28] of 41.7%, a viability, T/C [29] of 38.2% and a viability, T/C [30] of 31.7%. It also gave a viability, T/C [31] of 86.4%, a viability, T/C [32] of 67.2% and a viability, T/C [33] of 59.8%. For the same molecule, the viability, T/C [34] was 48.5%, the viability, T/C [35] was 37.3% and the viability, T/C [36] was 32.4%.
`CC(C)n1c(=O)n(C)c2cnc3cc(F)c(-c4ccc(OCCCN5CCCCC5)nc4)cc3c21` + Nc1ccc(C#CCN(C(=O)Cc2ncc(C(F)(F)F)cc2C(F)(F)F)c2ccc(F)cc2)nn1 was tested, and the IC50 (second compound 0.0316 µM) was greater than 10 µM, the IC50 (second compound 0.1 µM) was greater than 10 µM and the IC50 (second compound 0.316 µM) was greater than 10 µM. The IC50 (second compound 1 µM) was greater than 10 µM, the IC50 (second compound 3.16 µM) was greater than 10 µM and the IC50 (second compound 10 µM) was greater than 10 µM. It also gave a viability, T/C [1] of 105%, a viability, T/C [2] of 98% and a viability, T/C [3] of 106%. For the same molecule, the viability, T/C [4] was 107%, the viability, T/C [5] was 95% and the viability, T/C [6] was 73.6%. It also gave a viability, T/C [7] of 120%, a viability, T/C [8] of 103% and a viability, T/C [9] of 95.6%. The viability, T/C [10] was 106%, the viability, T/C [11] was 90.1% and the viability, T/C [12] was 74.6%. It also gave a viability, T/C [13] of 96.3%, a viability, T/C [14] of 99.2% and a viability, T/C [15] of 96%. The viability, T/C [16] was 93.9%, the viability, T/C [17] was 84.5% and the viability, T/C [18] was 65.4%. For the same molecule, the viability, T/C [19] was 104%, the viability, T/C [20] was 106% and the viability, T/C [21] was 84.7%. The viability, T/C [22] was 90%, the viability, T/C [23] was 83% and the viability, T/C [24] was 73.7%. For the same molecule, the viability, T/C [25] was 93.5%, the viability, T/C [26] was 84.7% and the viability, T/C [27] was 93%. For the same molecule, the viability, T/C [28] was 93.8%, the viability, T/C [29] was 83.4% and the viability, T/C [30] was 71.2%. The viability, T/C [31] was 73.6%, the viability, T/C [32] was 85.6% and the viability, T/C [33] was 97.2%. It also gave a viability, T/C [34] of 96.1%, a viability, T/C [35] of 86.3% and a viability, T/C [36] of 67.1%.
Molecule `CC(=O)O[C@H]1C(=O)[C@@]2(C)[C@H]([C@H](OC(=O)c3ccccc3)[C@]3(O)C[C@H](OC(=O)[C@H](O)[C@@H](NC(=O)c4ccccc4)c4ccccc4)C(C)=C1C3(C)C)[C@]1(OC(C)=O)CO[C@@H]1C[C@@H]2O` + Nc1ccc(C#CCN(C(=O)Cc2ncc(C(F)(F)F)cc2C(F)(F)F)c2ccc(F)cc2)nn1 has an IC50 (second compound 0.0316 µM) of 0.433 µM, an IC50 (second compound 0.1 µM) of 1.3 µM and an IC50 (second compound 0.316 µM) of 0.458 µM. The IC50 (second compound 1 µM) was greater than 3 µM, the IC50 (second compound 3.16 µM) was 1.94 µM and the IC50 (second compound 10 µM) was 0.139 µM. For the same molecule, the viability, T/C (second compound 0.0316 µM, first compound 0.00949 µM) was 85.1%, the viability, T/C (second compound 0.0316 µM, first compound 0.03 µM) was 62.4% and the viability, T/C (second compound 0.0316 µM, first compound 0.0949 µM) was 56.9%. It also gave a viability, T/C (second compound 0.0316 µM, first compound 0.3 µM) of 50.7%, a viability, T/C (second compound 0.0316 µM, first compound 0.949 µM) of 47.9% and a viability, T/C (second compound 0.0316 µM, first compound 3 µM) of 48%. It also gave a viability, T/C (second compound 0.1 µM, first compound 0.00949 µM) of 84.3%, a viability, T/C (second compound 0.1 µM, first compound 0.03 µM) of 76.3% and a viability, T/C (second compound 0.1 µM, first compound 0.0949 µM) of 58.2%. For the same molecule, the viability, T/C (second compound 0.1 µM, first compound 0.3 µM) was 69.8%, the viability, T/C (second compound 0.1 µM, first compound 0.949 µM) was 51% and the viability, T/C (second compound 0.1 µM, first compound 3 µM) was 42.9%. For the same molecule, the viability, T/C (second compound 0.316 µM, first compound 0.00949 µM) was 91.4%, the viability, T/C (second compound 0.316 µM, first compound 0.03 µM) was 72.3% and the viability, T/C (second compound 0.316 µM, first compound 0.0949 µM) was 57.5%. It also gave a viability, T/C (second compound 0.316 µM, first compound 0.3 µM) of 47.7%, a viability, T/C (second compound 0.316 µM, first compound 0.949 µM) of 50.9% and a viability, T/C (second compound 0.316 µM, first compound 3 µM) of 45.2%. It also gave a viability, T/C (second compound 1 µM, first compound 0.00949 µM) of 79.3%, a viability, T/C (second compound 1 µM, first compound 0.03 µM) of 71.3% and a viability, T/C (second compound 1 µM, first compound 0.0949 µM) of 57%. The viability, T/C (second compound 1 µM, first compound 0.3 µM) was 51.8%, the viability, T/C (second compound 1 µM, first compound 0.949 µM) was 50.7% and the viability, T/C (second compound 1 µM, first compound 3 µM) was 50.8%. The viability, T/C (second compound 3.16 µM, first compound 0.00949 µM) was 82.7%, the viability, T/C (second compound 3.16 µM, first compound 0.03 µM) was 65% and the viability, T/C (second compound 3.16 µM, first compound 0.0949 µM) was 53.6%. For the same molecule, the viability, T/C (second compound 3.16 µM, first compound 0.3 µM) was 53.1%, the viability, T/C (second compound 3.16 µM, first compound 0.949 µM) was 52.8% and the viability, T/C (second compound 3.16 µM, first compound 3 µM) was 47.3%. It also gave a viability, T/C (second compound 10 µM, first compound 0.00949 µM) of 76.3%, a viability, T/C (second compound 10 µM, first compound 0.03 µM) of 60.7% and a viability, T/C (second compound 10 µM, first compound 0.0949 µM) of 50.4%. For the same molecule, the viability, T/C (second compound 10 µM, first compound 0.3 µM) was 49%, the viability, T/C (second compound 10 µM, first compound 0.949 µM) was 46.9% and the viability, T/C (second compound 10 µM, first compound 3 µM) was 51.8%.
